# Target: T1, wild-type HIV-1 protease (Human immunodeficiency virus type 1 group M subtype B, UniProt P04585)
# T1 construct: Escherichia coli expressed wild-type HIV-1 protease protein
# Experiment: Assay for Inhibition of Microbial Expressed HIV Protease (peptide substrate cleavage, LC-MS/MS readout)
# Type: biochemical
# Details: E. coli expressed wild-type HIV-1 protease, mean of at least two independent experiments, read-out: HIV Pr Enzyme HIV1 PR IC50
# Procedure, shortened: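 Cleavage of Val-Ser-Gln-Asn-(β-naphthyl)Ala-Pro-Ile-Val (400 μM) by recombinant HIV-1 protease ([…]) ran 1 h at 30 °C after a 30 min room-temperature inhibitor preincubation in 50 mM sodium acetate pH 5.5. Product peak areas by LC-MS/MS gave inhibition; values average at least two independent runs.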
row,Structure (SMILES),IC50 [nM]
1,"CC(C)NC(=O)N1CCN(C(=O)c2cccc(CN3C(=N)NC(c4ccccc4)(c4ccccc4)C3=O)c2)CC1 [Compound 326, 4-({3-[(2-imino-5-oxo-4,4-diphenylimidazolidin-1-yl)methyl]phenyl}carbonyl)-N-(1-methylethyl) piperazine-1-carboxamide]",59.4
2,"N=C1NC(c2ccccc2)(c2ccccc2)C(=O)N1Cc1cccc(C(=O)N2Cc3ccc(F)cc3C2)c1 [Compound 203, 3-{3-[(5-fluoro-1,3-dihydro-2H-isoindol-2-yl)carbonyl]benzyl}-2-imino-5,5-diphenylimidazolidin-4-one]",6.71
3,"COC(=O)N1CCN(C(=O)c2ccnc(CN3C(=N)NC(c4ccc(F)cc4)(c4ccc(F)cc4)C3=O)c2)CC1 [Compound 404, methyl 4-[(2-{[4,4-bis(4-fluorophenyl)-2-imino-5-oxoimidazolidin-1-yl]methyl}pyridin-4-yl)carbonyl]piperazine-1-carboxylate]",58.6
4,"CN(C)C(=O)c1nc2n(c1Cl)CCN(C(=O)c1cccc(CN3C(=N)NC(c4ccccc4)(c4ccccc4)C3=O)c1)C2 [Compound 327, 3-chloro-7-({3-[(2-imino-5-oxo-4,4-diphenylimidazolidin-1-yl)methyl]phenyl}carbonyl)-N,N-dimethyl-5,6,7,8-tetrahydroimidazo[1,2-a]pyrazine-2-carboxamide]",64.2
5,"N=C1N[C@](CCCC(F)(F)F)(c2ccc(F)cc2)C(=O)N1Cc1ccc(C(F)(F)F)c(C(=O)N2Cc3cnc(-c4cnc5[nH]ccc5c4)nc3C2)c1 [Compound 39, (5R)-5-(4-fluorophenyl)-2-imino-3-[3-{[2-(1H-pyrrolo[2,3-b]pyridin-5-yl)-5,7-dihydro-6H-pyrrolo[3,4-d]pyrimidin-6-yl]carbonyl}-4-(trifluoromethyl)benzyl]-5-(4,4,4-trifluorobutyl)imidazolidin-4-one]",4.1
6,"CCCC1(c2ccccc2)NC(=N)N(Cc2cccc(C(=O)N3CCN(c4ncccn4)CC3)c2)C1=O (centres unmarked) [Compound 320, 2-imino-5-phenyl-5-propyl-3-{3-[(4-pyrimidin-2-ylpiperazin-1-yl)carbonyl]benzyl} imidazolidin-4-one]",56.7
7,"CC(C)CCC1(c2ccccc2)NC(=N)N(Cc2ccc(C(F)(F)F)c(C(=O)N3CCC3)c2)C1=O (centres unmarked) [Compound 166, 3-[3-(azetidin-1-ylcarbonyl)-4-(trifluoromethyl)benzyl]-2-imino-5-(3-methylbutyl)-5-phenylimidazolidin-4-one]",34.9
8,"N=C1N[C@](CCCC(F)(F)F)(c2ccc(F)cc2)C(=O)N1Cc1ccc(C(F)(F)F)c(C(=O)N2Cc3cnc(N)nc3C2)c1 [Compound 57, (5R)-3-{3-[(2-amino-5,7-dihydro-6H-pyrrolo[3,4-d]pyrimidin-6-yl)carbonyl]-4-(trifluoromethyl)-benzyl}-5-(4-fluorophenyl)-2-imino-5-(4,4,4-trifluorobutyl)-imidazolidin-4-one]",6.24
9,"CC(=O)NCc1cc2c(o1)CCN(C(=O)c1cc(CN3C(=N)NC(CCC(C)C)(c4ccc(F)cc4)C3=O)ccc1C(F)(F)F)C2 (centres unmarked) [Compound 178, N-[(5-{[5-{[4-(4-fluorophenyl)-2-imino-4-(3-methylbutyl)-5-oxoimidazolidin-1-yl]methyl}-2-(trifluoromethyl)phenyl]carbonyl}-4,5,6,7-tetrahydrofuro[3,2-c]pyridin-2-yl)methyl]acetamide]",71.6
10,"CC(C)CCC1(c2cccc(-c3cccnc3)c2)NC(=N)N(Cc2cccc(C(=O)N3Cc4nccnc4C3)c2)C1=O (centres unmarked) [Compound 304, 3-[3-(5,7-dihydro-6H-pyrrolo[3,4-b]pyrazin-6-ylcarbonyl)benzyl]-2-imino-5-(3-methylbutyl)-5-(3-pyridin-3-ylphenyl)imidazolidin-4-one]",45.9
11,"COc1ccc(CN2C(=N)NC(c3ccc(Cl)cc3)(c3ccc(Cl)cc3)C2=O)cc1C(=O)N1Cc2ccccc2C1 [Compound 388, 5,5-bis(4-chlorophenyl)-3-[3-(1,3-dihydro-2H-isoindol-2-ylcarbonyl)-4-methoxybenzyl]-2-iminoimidazolidin-4-one]",54.3
12,"CC1c2cc(Cl)c(Cl)cc2CN1C(=O)c1cccc(CN2C(=N)NC(c3ccccc3)(c3ccccc3)C2=O)c1 (centres unmarked) [Compound 322, 3-{3-[(5,6-dichloro-1-methyl-1,3-dihydro-2H-isoindol-2-yl)carbonyl]benzyl}-2-imino-5,5-diphenylimidazolidin-4-one]",56.9
13,"N=C1NC(c2ccc(F)cc2)(c2ccc(F)cc2)C(=O)N1Cc1cccc(C(=O)N2CCN(c3ccccn3)CC2)c1 [Compound 285, 5,5-bis(4-fluorophenyl)-2-imino-3-{3-[(4-pyridin-2-ylpiperazin-1-yl)carbonyl]benzyl} imidazolidin-4-one]",33.3
14,"CCCC1(c2ccccc2)NC(=N)N(Cc2cccc(C(=O)N3Cc4cnc(C#N)nc4C3)c2)C1=O (centres unmarked) [Compound 243, 6-({3-[(2-imino-5-oxo-4-phenyl-4-propylimidazolidin-1-yl)methyl]phenyl}carbonyl)-6,7-dihydro-5H-pyrrolo[3,4-d]pyrimidine-2-carbonitrile]",16.7
15,"N=C1NC(c2ccc(F)cc2)(c2ccccn2)C(=O)N1Cc1cccc(C(=O)N2Cc3[nH]nc(C(F)(F)F)c3C2)c1 (centres unmarked) [Compound 248, 5-(4-fluorophenyl)-2-imino-5-pyridin-2-yl-3-(3-{[3-(trifluoromethyl)-4,6-dihydropyrrolo [3,4-c]pyrazol-5(1H)-yl]carbonyl}benzyl) imidazolidin-4-one]",18
16,"N=C1NC(c2ccc(F)cc2)(c2ccc(F)cc2)C(=O)N1Cc1cccc(C(=O)N2CCC(n3c(=O)[nH]c4nc(F)ccc43)CC2)c1 [Compound 316, 1-{1-[(3-{[4,4-bis(4-fluorophenyl)-2-imino-5-oxoimidazolidin-1-yl]methyl}phenyl)carbonyl]piperidin-4-yl}-5-fluoro-1,3-dihydro-2H-imidazo[4,5-b]pyridin-2-one]",52.9
17,"COCC(=O)N1CCN(C(=O)c2cc(CN3C(=N)N[C@](CCCC(F)(F)F)(c4ccc(F)cc4)C3=O)ccc2C(F)(F)F)CC1 [Compound 112, (5R)-5-(4-fluorophenyl)-2-imino-3-[3-{[4-(methoxyacetyl)piperazin-1-yl]carbonyl}-4-(trifluoromethyl)benzyl]-5-(4,4,4-trifluorobutyl)imidazolidin-4-one]",30.7
18,CC(C)CCC1(c2ccc(F)cc2)NC(=N)N(Cc2ccc(C(F)(F)F)c(C(=O)N3C[C@H]4OCc5cnnn5[C@H]4C3)c2)C1=O (some centres unmarked) [Compound 169],38.6
19,"N=C1N[C@](CCCC(F)(F)F)(c2ccc(F)cc2)C(=O)N1Cc1ccc(C(F)(F)F)c(C(=O)N2Cc3cnc(-c4cnc(-n5cccn5)nc4)nc3C2)c1 [Compound 69, (5R)-5-(4-fluorophenyl)-2-imino-3-[3-({2-[2-(1H-pyrazol-1-yl)pyrimidin-5-yl]-5,7-dihydro-6H-pyrrolo[3,4-d]pyrimidin-6-yl}carbonyl)-4-(trifluoromethyl)benzyl]-5-(4,4,4-trifluorobutyl)imidazolidin-4-one]",8.8
20,"COC(=O)Nc1ncc2c(n1)CN(C(=O)c1ccc3c(c1)[C@H](N1C(=N)N[C@](CCC(C)C)(c4ccccc4)C1=O)CC3)C2 [Compound 96, methyl [6-({(3R)-3-[(4R)-2-imino-4-(3-methylbutyl)-5-oxo-4-phenylimidazolidin-1-yl]-2,3-dihydro-1H-inden-5-yl}carbonyl)-6,7-dihydro-5H-pyrrolo[3,4-d]pyrimidin-2-yl]carbamate]",20.4
21,"N=C1NC(c2ccc(F)cc2)(c2ccc(F)cc2)C(=O)N1Cc1ccc(Cl)c(C(=O)N2Cc3ccc(F)cc3C2)c1 [Compound 377, 3-{4-chloro-3-[(5-fluoro-1,3-dihydro-2H-isoindol-2-yl)carbonyl]benzyl}-5,5-bis(4-fluorophenyl)-2-iminoimidazolidin-4-one]",10
22,"CC(C)CC(c1ccc(C(F)(F)F)c(C(=O)N2CCn3c(nnc3C(F)(F)F)C2)c1)N1C(=N)N[C@@](C[C@@H]2CCOC2)(c2ccc(F)cc2)C1=O (stereo partly drawn) [Compound 29, (5S)-5-(4-fluorophenyl)-2-imino-3-{3-methyl-1-[4-(trifluoromethyl)-3-{[3-(trifluoromethyl)-5,6-dihydro-[1,2,4]triazolo[4,3-a]pyrazin-7(8H)-yl]carbonyl}phenyl]butyl}-5-[(3R)-tetrahydrofuran-3-ylmethyl]-imidazolidin-4-one]",3.07
23,"CC(C)CC[C@]1(c2ccccc2)NC(=N)N(Cc2ccc(S(C)(=O)=O)c(C(=O)N3Cc4nccnc4C3)c2)C1=O [Compound 126, (5R)-3-[3-(5,7-dihydro-6H-pyrrolo[3,4-b]pyrazin-6-ylcarbonyl)-4-(methylsulfonyl)-benzyl]-2-imino-5-(3-methylbutyl)-5-phenylimidazolidin-4-one]",60.2
24,"N=C1NC(c2ccc(F)cc2)(c2ccc(F)cc2)C(=O)N1Cc1ccc(F)c(C(=O)N2Cc3nccnc3C2)c1 [Compound 382, 3-[3-(5,7-dihydro-6H-pyrrolo[3,4-b]pyrazin-6-ylcarbonyl)-4-fluorobenzyl]-5,5-bis(4-fluorophenyl)-2-iminoimidazolidin-4-one]",13.1
25,"N=C1N[C@](CCCC(F)(F)F)(c2ccc(F)cc2)C(=O)N1Cc1ccc(C(F)(F)F)c(C(=O)N2Cc3cnc(-c4cccc(F)c4)nc3C2)c1 [Compound 86, (5R)-5-(4-fluorophenyl)-3-[3-{[2-(3-fluorophenyl)-5,7-dihydro-6H-pyrrolo[3,4-d]pyrimidin-6-yl]carbonyl}-4-(trifluoromethyl)-benzyl]-2-imino-5-(4,4,4-trifluorobutyl)imidazolidin-4-one]",14.5
26,"N=C1NC(c2ccc(F)cc2)(c2ccc(F)cc2)C(=O)N1Cc1cccc(C(=O)N2CCC(n3c(=O)[nH]c4ccccc43)CC2)c1 [Compound 338, 1-{1-[(3-{[4,4-bis(4-fluorophenyl)-2-imino-5-oxoimidazolidin-1-yl]methyl}phenyl)carbonyl]piperidin-4-yl}-1,3-dihydro-2H-benzimidazol-2-one]",73.5
